Source: patent US20260078120A1, “SUBSTITUTED PYRIDOPYRIMIDINONES” (MIRATI THERAPEUTICS, INC., priority 2022, published 2026)
pIC50: −log10 of the molar value.

Experiments:
Assay type in all cases: cell-based
[1] = test system: T47D (PI3Kα H1047R mutant) cells; assay: Inhibition of pAKT formation, alphaLISA SureFire Ultra AKT 1/2/3 (pS473), T47D cells; conditions: Homo sapiens, T47D; for pIC50: T47D (PI3Kα H1047R mutant) cells, inhibition of pAKT (pS473) formation, approximately one hour or 24 hours treatment, read-out: T47D pAKT (H1047R mutant) IC50
How it was run: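 AKT Ser473 phosphorylation was quantified by alphaLISA SureFire Ultra after roughly 1 h or 24 h compound exposure at 37 °C. Cells were T47D (12,000/well in HBSS), treated with a 10-point 1:4 series starting at 10.4 μM. Percent of control used alpelisib background and DMSO reference, and IC50 came from four-parameter logistic fitting.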

[2] = test system: SKBR3 (PI3Kα wild type) cells; assay: CellTiter-Glo 2.0 luminescent cell viability assay, 72 hours, SKBR3 cells; conditions: Homo sapiens, SK-BR-3, 72 h; for pIC50: SKBR3 (PI3Kα wild type) cells, CellTiter-Glo, approximately 72 hours, read-out: SKBR3 (WT) Viability IC50
How it was run: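 Viability measured via CTG luminescence following roughly 72 hours of compound exposure at 37° C. Dosing used a 10 um starting concentration diluted 1:4 over 10 points; percent-of-vehicle data fitted with a variable-slope four-parameter model for IC50.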

[3] = test system: SKBR3 (PI3Kα wild type) cells; assay: Inhibition of pAKT formation, alphaLISA SureFire Ultra AKT 1/2/3 (pS473), SKBR3 cells; conditions: Homo sapiens, SK-BR-3; Inhibition of pAKT in SKBR3 (PI3Kα wild type) cells; read-out: SKBR3 (WT) pAKT IC50 (nM) (H1047R mutant) IC50
Method: The ability of a compound of Formula (I) to inhibit the formation of pAKT was measured using alphaLISA Surefire Ultra AKT 1/2/3 (pS473) Assay Kit (#ALSU-PAKT-B50K) was obtained from Perkin Elmer (Waltham, MA).
To prepare assay plates for pAKT alphaLISA assays, cells were trypsinized, resuspended in fresh media, and viable cells were counted utilizing trypan blue exclusion. Prior to seeding, cells were washed with PBS and resuspended in HBSS (Gibco, #14025092). T47D (12,000/w), SKBR3(12,000/w), or MKN1(24,000/w) cells were seeded at 12 μl per well in a solid white flat bottom 384 cell culture plate (Perkin Elmer #6007680).
Immediately after seeding, cells were dosed using an Echo Liquid Handler (Beckman Coulter) with compounds at a […] starting concentration and serially diluted (1:4) for a total of 10 concentrations. […] Cells were incubated with the compounds (solubilized in DMSO) for approximately one hour or 24 hours at 37° C. After one hour (or 24 hours) of treatment, cells were lysed with 3 μl of the 5× lysis buffer (provided and incubated at room temperature for 15 min on a microtiter plate shaker). Once cells were sufficiently lysed, 7.5 μl of the acceptor bead mix (made using the manufacturers recommended dilutions) was added to each well and left on the microtiter plate shaker for 1 min prior to incubating plates at room temperature for one hour, in the absence of light. After one hour of incubation with the acceptor bead mix, 7.5 μl of the donor bead mix (made using the manufacturers recommended dilutions) was added to each well and left on the microtiter plate shaker for 1 min prior to incubating plates at room temperature overnight in the absence of light. Plates were then imaged the following day using a CLARIOstar microplate reader (BMG Labtech, Germany).
Percent of control values were calculated by subtracting the average signal from the positive control (alpelisib) treated wells from all treated wells (including DMSO control wells) and then divided by the average signal from the vehicle DMSO treated control wells. Percent of vehicle control values were plotted as log (inhibitor) vs. response-Variable slope (four parameters) for curve fitting and IC50 values were determined using XLfit.
Key: N.D. =not determined

[4] = test system: T47D (PI3Kα H1047R mutant) cells; assay: CellTiter-Glo 2.0 luminescent cell viability assay, 72 hours, T47D cells; conditions: Homo sapiens, T47D, 72 h; for pIC50: T47D (PI3Kα H1047R mutant) cells, CellTiter-Glo, approximately 72 hours, read-out: T47D (H1047R mutant) Viability IC50
How it was run: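 Viability was measured by CellTiter-Glo 2.0 luminescence after approximately 72 h of compound exposure at 37° C. Plating was 1000 cells per well the day before dosing, with ten 1:4 dilutions from a 10 µM top concentration. Values as percent of vehicle were fitted by variable-slope log(inhibitor) regression to give IC50.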

Structure (SMILES)	pIC50 [1]	pIC50 [2]	IC50 [3] [nM]	pIC50 [4]	IC50 ([1]; read-out: T47D pAKT (H1047R mutant) IC50 (nM)) [nM]	IC50 ([2]; read-out: SKBR3 (WT) Viability IC50 (nM)) [nM]	IC50 ([4]; read-out: T47D (H1047R mutant) Viability IC50 (nM)) [nM]
Cc1cc([C@@H](C)Nc2ccccc2C(=O)O)c2nc(N3CCCCC3)c(C(F)(F)F)c(=O)n2c1 [Example 10-71, (R)-2-((1-(7-methyl-4-oxo-2-(piperidin-1-yl)-3-(trifluoromethyl)-4H-pyrido[1,2-a]pyrimidin-9-yl)ethyl)amino)benzoic acid]	< 5.00	< 5.00	> 10000	5.31			
Cc1cc([C@@H](C)Nc2ccccc2C(=O)O)c2nc(N3CCN(c4ccc(C#N)cc4F)CC3)c(C)c(=O)n2c1 [Example 10-55, (R)-2-((1-(2-(4-(4-cyano-2-fluorophenyl)piperazin-1-yl)-3,7-dimethyl-4-oxo-4H-pyrido[1,2-a]pyrimidin-9-yl)ethyl)amino)benzoic acid]	8.48	5.38		7.14			
Cc1cc([C@@H](C)Nc2ccccc2C(=O)O)c2nc(N(C)C3CC(F)(F)C3)c(C#N)c(=O)n2c1 [Example 10-49, (R)-2-((1-(3-cyano-2-((3,3-difluorocyclobutyl)(methyl)amino)-7-methyl-4-oxo-4H-pyrido[1,2-a]pyrimidin-9-yl)ethyl)amino)benzoic acid]	8.68	< 5.00		7.18			
Cc1cc([C@@H](C)Nc2ccccc2C(=O)O)c2nc(N3CCN(c4ccc(C#N)cc4)CC3C)c(C#N)c(=O)n2c1 (stereo partly drawn) [Example 10-109, 2-(((1R)-1-(3-cyano-2-(4-(4-cyanophenyl)-2-methylpiperazin-1-yl)-7-methyl-4-oxo-4H-pyrido[1,2-a]pyrimidin-9-yl)ethyl)amino)benzoic acid]	8.57	5.05		7.03			
Cc1cc([C@@H](C)Nc2ccccc2C(=O)O)c2nc(N3CCC(c4ccn(C)n4)CC3)c(C)c(=O)n2c1 [Example 10-58, (R)-2-((1-(3,7-dimethyl-2-(4-(1-methyl-1H-pyrazol-3-yl)piperidin-1-yl)-4-oxo-4H-pyrido[1,2-a]pyrimidin-9-yl)ethyl)amino)benzoic acid]	8.40	< 5.00		7.13			
Cc1cc([C@@H](C)Nc2ccccc2C(=O)O)c2nc(N3CCN(c4cn(C)nc4C(F)(F)F)CC3)c(C)c(=O)n2c1 [Example 10-13, (R)-2-((1-(3,7-dimethyl-2-(4-(1-methyl-3-(trifluoromethyl)-1H-pyrazol-4-yl)piperazin-1-yl)-4-oxo-4H-pyrido[1,2-a]pyrimidin-9-yl)ethyl)amino)benzoic acid]	9.00	5.23		7.48			
Cc1cc([C@@H](C)Nc2ccc(Cl)nc2C(=O)O)c2nc(N3Cc4ccc(F)cc4C3)c(C#N)c(=O)n2c1 [Example 10-50, (R)-6-chloro-3-((1-(3-cyano-2-(5-fluoroisoindolin-2-yl)-7-methyl-4-oxo-4H-pyrido[1,2-a]pyrimidin-9-yl)ethyl)amino)picolinic acid]	8.87	< 5.00		7.18			
Cc1cc([C@@H](C)Nc2ccccc2C(=O)O)c2nc(N3C4CCCC3CC4)c(C#N)c(=O)n2c1 [Example 10-89, 2-(((1R)-1-(2-(8-azabicyclo[3.2.1]octan-8-yl)-3-cyano-7-methyl-4-oxo-4H-pyrido[1,2-a]pyrimidin-9-yl)ethyl)amino)benzoic acid]	8.09	< 5.00		7.09			
Cc1cc([C@@H](C)Nc2ccccc2C(=O)O)c2nc(N3CCN(c4ccc(C#N)c5cnccc45)CC3)c(C)c(=O)n2c1 [Example 10-19, (R)-2-((1-(2-(4-(8-cyanoisoquinolin-5-yl)piperazin-1-yl)-3,7-dimethyl-4-oxo-4H-pyrido[1,2-a]pyrimidin-9-yl)ethyl)amino)benzoic acid]					0.244	7640	41.4
Cc1cc([C@@H](C)Nc2ccccc2C(=O)O)c2nc(NC3CC(F)(F)C3)c(C#N)c(=O)n2c1 [Example 10-37, (R)-2-((1-(3-cyano-2-((3,3-difluorocyclobutyl)amino)-7-methyl-4-oxo-4H-pyrido[1,2-a]pyrimidin-9-yl)ethyl)amino)benzoic acid]	8.66	< 5.00		7.24			

Now from value to compound, other results behind:

pIC50 [1]	pIC50 [2]	IC50 [3] [nM]	pIC50 [4]	Structure (SMILES)	IC50 ([1]; read-out: T47D pAKT (H1047R mutant) IC50 (nM)) [nM]	IC50 ([2]; read-out: SKBR3 (WT) Viability IC50 (nM)) [nM]	IC50 ([4]; read-out: T47D (H1047R mutant) Viability IC50 (nM)) [nM]
7.85	< 5.00	> 10000	6.52	Cc1cc([C@@H](C)Nc2ccc(Cl)nc2C(=O)O)c2nc(N3CCC(F)(F)CC3)c(C#N)c(=O)n2c1 [Example 10-67, (R)-6-chloro-3-((1-(3-cyano-2-(4,4-difluoropiperidin-1-yl)-7-methyl-4-oxo-4H-pyrido[1,2-a]pyrimidin-9-yl)ethyl)amino)picolinic acid]			
8.58	< 5.00		6.96	Cc1cc([C@@H](C)Nc2ccccc2C(=O)O)c2nc(N3CCC(F)(F)[C@H](C)C3)c(C)c(=O)n2c1 [Example 10-126, 2-(((R)-1-(2-((R)-4,4-difluoro-3-methylpiperidin-1-yl)-3,7-dimethyl-4-oxo-4H-pyrido[1,2-a]pyrimidin-9-yl)ethyl)amino)benzoic acid]			
8.66	< 5.00		7.13	COC1(C)CCN(c2nc3c([C@@H](C)Nc4ccccc4C(=O)O)cc(C)cn3c(=O)c2C#N)CC1 [Example 10-78, (R)-2-((1-(3-cyano-2-(4-methoxy-4-methylpiperidin-1-yl)-7-methyl-4-oxo-4H-pyrido[1,2-a]pyrimidin-9-yl)ethyl)amino)benzoic acid]			
8.42	< 5.00		7.06	Cc1cc([C@@H](C)Nc2ccccc2C(=O)O)c2nc(N3CC4C(C3)C4(F)F)c(C#N)c(=O)n2c1 (stereo partly drawn) [Example 10-100, 2-(((1R)-1-(3-cyano-2-(6,6-difluoro-3-azabicyclo[3.1.0]hexan-3-yl)-7-methyl-4-oxo-4H-pyrido[1,2-a]pyrimidin-9-yl)ethyl)amino)benzoic acid]			
7.81	< 5.00		7.10	Cc1cc([C@@H](C)Nc2ccccc2C(=O)O)c2nc(N3CCN(c4ccc(F)cc4F)CC3)c(C#N)c(=O)n2c1 [Example 10-86, (R)-2-((1-(3-cyano-2-(4-(2,4-difluorophenyl)piperazin-1-yl)-7-methyl-4-oxo-4H-pyrido[1,2-a]pyrimidin-9-yl)ethyl)amino)benzoic acid]			
8.72	< 5.00		7.22	Cc1cc([C@@H](C)Nc2ccccc2C(=O)O)c2nc(N3CCN(c4ccc(F)cc4)CC3)c(C#N)c(=O)n2c1 [Example 10-40, (R)-2-((1-(3-cyano-2-(4-(4-fluorophenyl)piperazin-1-yl)-7-methyl-4-oxo-4H-pyrido[1,2-a]pyrimidin-9-yl)ethyl)amino)benzoic acid]			
8.42	< 5.00		7.10	Cc1cc([C@@H](C)Nc2ccccc2C(=O)O)c2nc(N3CC4CC3C(F)(F)C4)c(C#N)c(=O)n2c1 (stereo partly drawn) [Example 10-88, 2-(((1R)-1-(3-cyano-2-(6,6-difluoro-2-azabicyclo[2.2.1]heptan-2-yl)-7-methyl-4-oxo-4H-pyrido[1,2-a]pyrimidin-9-yl)ethyl)amino)benzoic acid]			
